Measured values as given in ChEMBL document CHEMBL3991601, “The target landscape of clinical kinase drugs” (Science, 2017).
Activity calls are given as the source filed them. Rule as the data show it, for most assays here: actives have a measured Kd and inactives only a lower limit.

What was measured:
LIM domain kinase 1 = LIM domain kinase 1 (Homo sapiens, UniProt P53667)
[1] = target: T1, Mitogen-activated protein kinase 15 (Homo sapiens, UniProt Q8TD08)
T1 sequence (Q8TD08 whole entry): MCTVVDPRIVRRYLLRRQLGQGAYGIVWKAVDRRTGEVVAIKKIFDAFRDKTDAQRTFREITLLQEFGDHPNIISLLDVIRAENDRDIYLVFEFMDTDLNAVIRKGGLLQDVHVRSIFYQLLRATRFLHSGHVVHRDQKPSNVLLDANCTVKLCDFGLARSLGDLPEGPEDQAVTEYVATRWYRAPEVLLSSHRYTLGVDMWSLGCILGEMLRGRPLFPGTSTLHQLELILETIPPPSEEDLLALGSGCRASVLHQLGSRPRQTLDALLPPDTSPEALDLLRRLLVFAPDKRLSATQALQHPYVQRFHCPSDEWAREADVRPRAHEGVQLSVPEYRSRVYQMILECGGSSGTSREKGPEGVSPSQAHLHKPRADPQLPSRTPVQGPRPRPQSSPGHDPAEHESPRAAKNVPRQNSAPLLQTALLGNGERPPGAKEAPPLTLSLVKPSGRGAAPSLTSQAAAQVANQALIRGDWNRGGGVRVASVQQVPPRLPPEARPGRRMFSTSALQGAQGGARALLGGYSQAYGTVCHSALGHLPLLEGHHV

[2] = target: T2, Ribosyldihydronicotinamide dehydrogenase [quinone] (Homo sapiens, UniProt P16083)
T2 sequence (P16083 whole entry): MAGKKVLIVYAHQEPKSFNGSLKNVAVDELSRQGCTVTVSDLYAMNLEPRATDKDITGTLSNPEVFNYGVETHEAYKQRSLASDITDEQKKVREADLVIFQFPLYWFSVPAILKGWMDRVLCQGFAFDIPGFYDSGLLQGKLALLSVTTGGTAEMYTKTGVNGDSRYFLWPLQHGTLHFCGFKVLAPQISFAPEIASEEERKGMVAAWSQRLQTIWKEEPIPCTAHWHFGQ

[3] = target: T3, Dynamin-like GTPase OPA1, mitochondrial (Homo sapiens, UniProt O60313)
T3 sequence (O60313 whole entry): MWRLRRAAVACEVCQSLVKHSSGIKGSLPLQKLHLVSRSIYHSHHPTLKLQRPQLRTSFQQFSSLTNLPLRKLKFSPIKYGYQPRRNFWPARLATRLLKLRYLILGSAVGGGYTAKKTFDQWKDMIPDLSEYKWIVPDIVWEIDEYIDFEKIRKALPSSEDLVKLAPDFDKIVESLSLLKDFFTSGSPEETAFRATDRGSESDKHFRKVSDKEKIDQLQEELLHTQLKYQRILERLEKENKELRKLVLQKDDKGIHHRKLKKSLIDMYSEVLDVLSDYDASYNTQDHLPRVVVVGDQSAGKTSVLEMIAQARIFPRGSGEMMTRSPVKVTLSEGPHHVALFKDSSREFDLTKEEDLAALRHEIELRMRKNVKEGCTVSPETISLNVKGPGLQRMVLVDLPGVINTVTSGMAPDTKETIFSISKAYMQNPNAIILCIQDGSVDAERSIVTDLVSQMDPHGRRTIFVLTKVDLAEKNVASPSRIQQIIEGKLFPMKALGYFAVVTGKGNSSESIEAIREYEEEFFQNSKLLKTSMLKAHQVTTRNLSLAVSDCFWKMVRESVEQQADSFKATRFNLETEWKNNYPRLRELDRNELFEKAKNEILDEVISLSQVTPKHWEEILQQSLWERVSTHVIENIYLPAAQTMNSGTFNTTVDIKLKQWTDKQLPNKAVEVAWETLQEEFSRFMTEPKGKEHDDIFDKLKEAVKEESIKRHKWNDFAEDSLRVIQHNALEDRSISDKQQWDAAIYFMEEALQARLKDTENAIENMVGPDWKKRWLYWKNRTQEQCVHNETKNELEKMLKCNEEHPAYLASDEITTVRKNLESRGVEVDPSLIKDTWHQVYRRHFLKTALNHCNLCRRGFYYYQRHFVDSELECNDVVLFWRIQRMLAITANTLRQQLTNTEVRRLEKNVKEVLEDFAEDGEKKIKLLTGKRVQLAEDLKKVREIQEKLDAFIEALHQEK

[4] = target: Protein-tyrosine kinase 6 (Homo sapiens, UniProt Q13882)
[5] = target: Receptor-interacting serine/threonine-protein kinase 2 (Homo sapiens, UniProt O43353)
[6] = target: Ribosomal protein S6 kinase alpha-3 (Homo sapiens, UniProt P51812)
TGF-beta receptor type-1 = target: T4, TGF-beta receptor type-1 (Homo sapiens, UniProt P36897)
T4 sequence (P36897 whole entry): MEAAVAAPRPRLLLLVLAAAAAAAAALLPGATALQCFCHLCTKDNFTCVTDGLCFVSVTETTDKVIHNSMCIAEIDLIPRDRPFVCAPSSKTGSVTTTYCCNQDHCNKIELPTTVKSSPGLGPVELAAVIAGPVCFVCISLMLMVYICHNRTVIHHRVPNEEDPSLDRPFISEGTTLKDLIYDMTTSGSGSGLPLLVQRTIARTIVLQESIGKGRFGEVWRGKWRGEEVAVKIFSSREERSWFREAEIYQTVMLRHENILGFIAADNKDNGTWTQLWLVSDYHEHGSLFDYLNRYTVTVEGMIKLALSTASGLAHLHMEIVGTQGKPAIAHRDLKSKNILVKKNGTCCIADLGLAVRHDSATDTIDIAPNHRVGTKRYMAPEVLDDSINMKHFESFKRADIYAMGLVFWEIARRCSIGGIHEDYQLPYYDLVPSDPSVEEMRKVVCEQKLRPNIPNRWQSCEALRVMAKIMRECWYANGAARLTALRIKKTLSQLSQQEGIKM

[7] = target: T5, Serine/threonine-protein kinase ULK3 (Homo sapiens, UniProt Q6PHR2)
T5 sequence (Q6PHR2 whole entry): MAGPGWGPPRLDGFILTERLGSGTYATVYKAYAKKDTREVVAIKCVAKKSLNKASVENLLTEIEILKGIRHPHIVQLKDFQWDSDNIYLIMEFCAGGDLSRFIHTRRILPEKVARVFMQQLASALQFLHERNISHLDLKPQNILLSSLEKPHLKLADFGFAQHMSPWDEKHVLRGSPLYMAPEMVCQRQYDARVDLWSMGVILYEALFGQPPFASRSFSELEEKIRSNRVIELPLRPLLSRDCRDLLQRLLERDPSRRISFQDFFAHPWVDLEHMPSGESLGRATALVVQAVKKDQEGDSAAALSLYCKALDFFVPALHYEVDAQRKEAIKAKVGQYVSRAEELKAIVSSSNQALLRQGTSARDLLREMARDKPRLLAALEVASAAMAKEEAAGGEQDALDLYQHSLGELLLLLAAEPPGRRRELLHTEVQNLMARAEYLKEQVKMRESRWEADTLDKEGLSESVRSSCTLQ
Also: in the data inactive means no Kd found up to 30 µM.

Ribosomal protein S6 kinase alpha-3, sequence (P51812 whole entry): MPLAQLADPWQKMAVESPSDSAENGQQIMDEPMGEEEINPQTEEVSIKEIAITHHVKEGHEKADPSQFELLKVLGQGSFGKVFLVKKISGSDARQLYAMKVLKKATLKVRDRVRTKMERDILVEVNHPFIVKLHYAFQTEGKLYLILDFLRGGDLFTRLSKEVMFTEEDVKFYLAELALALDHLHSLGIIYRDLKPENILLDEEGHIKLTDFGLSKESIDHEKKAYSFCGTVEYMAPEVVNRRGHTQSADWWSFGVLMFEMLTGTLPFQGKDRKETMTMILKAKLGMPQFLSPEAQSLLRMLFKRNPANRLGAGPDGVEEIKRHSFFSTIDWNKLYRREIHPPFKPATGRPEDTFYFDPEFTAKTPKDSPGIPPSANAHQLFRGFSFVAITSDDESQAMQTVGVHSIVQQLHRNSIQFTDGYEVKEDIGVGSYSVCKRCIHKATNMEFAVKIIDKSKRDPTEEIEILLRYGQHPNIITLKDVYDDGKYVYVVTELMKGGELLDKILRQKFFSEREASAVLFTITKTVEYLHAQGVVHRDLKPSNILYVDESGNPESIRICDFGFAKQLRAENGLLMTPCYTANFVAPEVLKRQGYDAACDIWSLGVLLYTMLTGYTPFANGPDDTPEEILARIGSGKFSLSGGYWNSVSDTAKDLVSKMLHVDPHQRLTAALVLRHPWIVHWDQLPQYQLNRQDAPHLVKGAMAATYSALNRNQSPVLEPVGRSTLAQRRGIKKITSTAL
Protein-tyrosine kinase 6, sequence (Q13882 whole entry): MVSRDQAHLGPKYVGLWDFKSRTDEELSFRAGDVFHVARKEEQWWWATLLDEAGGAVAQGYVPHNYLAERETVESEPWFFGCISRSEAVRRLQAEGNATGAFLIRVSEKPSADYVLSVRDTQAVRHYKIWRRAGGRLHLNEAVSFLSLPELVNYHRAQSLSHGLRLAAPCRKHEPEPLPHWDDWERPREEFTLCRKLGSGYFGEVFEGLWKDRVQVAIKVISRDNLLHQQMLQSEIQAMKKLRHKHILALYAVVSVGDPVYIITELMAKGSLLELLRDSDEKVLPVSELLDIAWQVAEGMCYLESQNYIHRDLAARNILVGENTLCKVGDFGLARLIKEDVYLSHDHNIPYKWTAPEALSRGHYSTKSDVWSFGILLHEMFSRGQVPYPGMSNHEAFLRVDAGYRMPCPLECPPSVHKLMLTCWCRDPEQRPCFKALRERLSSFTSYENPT
LIM domain kinase 1, sequence (P53667 whole entry, the tested form may be a part): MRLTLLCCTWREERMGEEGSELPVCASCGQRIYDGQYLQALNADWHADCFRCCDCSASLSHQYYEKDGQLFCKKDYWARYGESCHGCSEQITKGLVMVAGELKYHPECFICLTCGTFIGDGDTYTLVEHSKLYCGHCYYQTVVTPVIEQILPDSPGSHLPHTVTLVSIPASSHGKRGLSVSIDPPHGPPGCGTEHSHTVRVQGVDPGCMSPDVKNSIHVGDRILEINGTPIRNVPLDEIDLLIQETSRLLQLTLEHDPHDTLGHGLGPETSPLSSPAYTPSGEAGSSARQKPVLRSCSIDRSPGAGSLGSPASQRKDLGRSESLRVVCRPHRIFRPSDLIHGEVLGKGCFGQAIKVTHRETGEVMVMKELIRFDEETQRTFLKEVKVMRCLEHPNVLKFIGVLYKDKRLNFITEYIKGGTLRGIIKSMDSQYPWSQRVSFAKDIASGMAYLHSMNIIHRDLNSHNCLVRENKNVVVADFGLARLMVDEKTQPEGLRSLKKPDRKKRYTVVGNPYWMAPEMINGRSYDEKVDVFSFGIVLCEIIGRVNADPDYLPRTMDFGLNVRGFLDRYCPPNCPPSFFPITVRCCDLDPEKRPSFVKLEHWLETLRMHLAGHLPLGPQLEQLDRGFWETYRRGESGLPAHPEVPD
Receptor-interacting serine/threonine-protein kinase 2, sequence (O43353 whole entry): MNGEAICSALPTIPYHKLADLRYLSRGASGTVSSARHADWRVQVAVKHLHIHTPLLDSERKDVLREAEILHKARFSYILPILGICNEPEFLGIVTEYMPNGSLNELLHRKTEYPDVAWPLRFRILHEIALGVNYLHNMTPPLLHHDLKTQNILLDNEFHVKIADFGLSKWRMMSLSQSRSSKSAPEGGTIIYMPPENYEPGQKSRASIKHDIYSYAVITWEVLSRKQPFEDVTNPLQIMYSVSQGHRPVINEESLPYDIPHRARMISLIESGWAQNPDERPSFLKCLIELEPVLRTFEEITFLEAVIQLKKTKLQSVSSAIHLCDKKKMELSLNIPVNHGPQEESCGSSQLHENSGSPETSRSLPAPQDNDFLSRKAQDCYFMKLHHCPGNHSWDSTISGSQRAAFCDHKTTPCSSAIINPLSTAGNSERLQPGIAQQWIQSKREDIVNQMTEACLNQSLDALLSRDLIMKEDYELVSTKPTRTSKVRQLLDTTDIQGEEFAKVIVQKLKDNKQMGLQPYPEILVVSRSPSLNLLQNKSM

SMILES: CO[C@H]1C[C@@H]2CC[C@@H](C)[C@@](O)(O2)C(=O)C(=O)N2CCCC[C@H]2C(=O)O[C@H]([C@H](C)C[C@@H]2CC[C@@H](OCCO)[C@H](OC)C2)CC(=O)[C@H](C)/C=C(\C)[C@@H](O)[C@@H](OC)C(=O)[C@H](C)C[C@H](C)/C=C/C=C/C=C/1C [EVEROLIMUS]
- Kd (LIM domain kinase 1): > 30 µM (inactive)
- Kd [1]: > 30 µM (inactive)
- Kd [2]: > 30 µM (inactive)
- Kd [3]: > 30 µM (inactive)
- Kd [4]: > 30 µM (inactive)
- Kd [5]: > 30 µM (inactive)
- Kd [6]: > 30 µM (inactive)
- Kd (TGF-beta receptor type-1): > 30 µM (inactive)
- Kd [7]: > 30 µM (inactive)

SMILES: CCN1CCN(Cc2ccc(-c3cc4c(N[C@H](C)c5ccccc5)ncnc4[nH]3)cc2)CC1 [AEE-788]
- Kd (LIM domain kinase 1): 0.632 µM (active)
- Kd [1]: > 30 µM (inactive)
- Kd [2]: > 30 µM (inactive)
- Kd [3]: > 30 µM (inactive)
- Kd [4]: > 30 µM (inactive)
- Kd [5]: > 30 µM (inactive)
- Kd [6]: > 30 µM (inactive)
- Kd (TGF-beta receptor type-1): > 30 µM (inactive)
- Kd [7]: > 30 µM (inactive)

SMILES: CC(=O)Nc1cccc(-n2c(=O)n(C3CC3)c(=O)c3c(Nc4ccc(I)cc4F)n(C)c(=O)c(C)c32)c1 [TRAMETINIB]
- Kd (LIM domain kinase 1): > 30 µM (inactive)
- Kd [1]: > 30 µM (inactive)
- Kd [2]: > 30 µM (inactive)
- Kd [3]: > 30 µM (inactive)
- Kd [4]: > 30 µM (inactive)
- Kd [5]: > 30 µM (inactive)
- Kd [6]: > 30 µM (inactive)
- Kd (TGF-beta receptor type-1): > 30 µM (inactive)
- Kd [7]: > 30 µM (inactive)

SMILES: O=C(O)[C@]1(Cc2cccc(Nc3nccs3)n2)CC[C@@H](Oc2cccc(Cl)c2F)CC1 [MK-5108]
- Kd (LIM domain kinase 1): 5.09 µM (active)
- Kd [1]: > 30 µM (inactive)
- Kd [2]: > 30 µM (inactive)
- Kd [3]: > 30 µM (inactive)
- Kd [4]: 0.841 µM (active)
- Kd [5]: > 30 µM (inactive)
- Kd [6]: > 30 µM (inactive)
- Kd (TGF-beta receptor type-1): 1.7 µM (active)
- Kd [7]: > 30 µM (inactive)

SMILES: N[C@@H]1CCCN(c2c(/C=C3\SC(=O)NC3=O)cccc2-c2ccccc2)C1
- Kd (LIM domain kinase 1): > 30 µM (inactive)
- Kd [1]: > 30 µM (inactive)
- Kd [2]: > 30 µM (inactive)
- Kd [3]: > 30 µM (inactive)
- Kd [4]: > 30 µM (inactive)
- Kd [5]: > 30 µM (inactive)
- Kd [6]: > 30 µM (inactive)
- Kd (TGF-beta receptor type-1): > 30 µM (inactive)
- Kd [7]: > 30 µM (inactive)

SMILES: Cc1ccc(NC(=O)c2ccc(CN3CC[C@H](N(C)C)C3)c(C(F)(F)F)c2)cc1Nc1nccc(-c2cncnc2)n1 [BAFETINIB]
- Kd (LIM domain kinase 1): > 30 µM (inactive)
- Kd [1]: > 30 µM (inactive)
- Kd [2]: 6.87 µM
- Kd [3]: > 30 µM (inactive)
- Kd [4]: > 30 µM (inactive)
- Kd [5]: 1.47 µM (active)
- Kd [6]: > 30 µM (inactive)
- Kd (TGF-beta receptor type-1): > 30 µM (inactive)
- Kd [7]: > 30 µM (inactive)

SMILES: O=C(c1ccc(F)c(F)c1Nc1ccc(I)cc1F)N1CC(O)([C@@H]2CCCCN2)C1 [COBIMETINIB]
- Kd (LIM domain kinase 1): > 30 µM (inactive)
- Kd [1]: > 30 µM (inactive)
- Kd [2]: > 30 µM (inactive)
- Kd [3]: > 30 µM (inactive)
- Kd [4]: > 30 µM (inactive)
- Kd [5]: > 30 µM (inactive)
- Kd [6]: > 30 µM (inactive)
- Kd (TGF-beta receptor type-1): > 30 µM (inactive)
- Kd [7]: > 30 µM (inactive)

SMILES: C[C@@H]1CN(Cc2ccc(F)cc2)[C@@H](C)CN1C(=O)c1cc2c(C(=O)C(=O)N(C)C)cn(C)c2cc1Cl [TALMAPIMOD]
- Kd (LIM domain kinase 1): > 30 µM (inactive)
- Kd [1]: > 30 µM (inactive)
- Kd [2]: 9.92 µM (active)
- Kd [3]: > 30 µM (inactive)
- Kd [4]: > 30 µM (inactive)
- Kd [5]: > 30 µM (inactive)
- Kd [6]: > 30 µM (inactive)
- Kd (TGF-beta receptor type-1): > 30 µM (inactive)
- Kd [7]: > 30 µM (inactive)

SMILES: Cc1cc(-c2cc(O)ccc2Cl)cc2nnc(Nc3ccc(OCCN4CCCC4)cc3)nc12
- Kd (LIM domain kinase 1): > 30 µM (inactive)
- Kd [1]: > 30 µM (inactive)
- Kd [2]: > 30 µM (inactive)
- Kd [3]: > 30 µM (inactive)
- Kd [4]: > 30 µM (inactive)
- Kd [5]: 0.0009 µM (active)
- Kd [6]: > 30 µM (inactive)
- Kd (TGF-beta receptor type-1): 0.002 µM (active)
- Kd [7]: > 30 µM (inactive)

SMILES: COc1cc(CCc2cc(NC(=O)c3ccc(N4C[C@@H](C)N[C@@H](C)C4)cc3)n[nH]2)cc(OC)c1 [AZD-4547]
- Kd (LIM domain kinase 1): > 30 µM (inactive)
- Kd [1]: > 30 µM (inactive)
- Kd [2]: > 30 µM (inactive)
- Kd [3]: > 30 µM (inactive)
- Kd [4]: > 30 µM (inactive)
- Kd [5]: > 30 µM (inactive)
- Kd [6]: > 30 µM (inactive)
- Kd (TGF-beta receptor type-1): > 30 µM (inactive)
- Kd [7]: > 30 µM (inactive)

SMILES: Cc1cc([C@@H](C)Nc2ccccc2C(=O)O)c2nc(N3CCOCC3)cc(=O)n2c1 [AZD-6482]
- Kd (LIM domain kinase 1): > 30 µM (inactive)
- Kd [1]: > 30 µM (inactive)
- Kd [2]: > 30 µM (inactive)
- Kd [3]: > 30 µM (inactive)
- Kd [4]: > 30 µM (inactive)
- Kd [5]: > 30 µM (inactive)
- Kd [6]: > 30 µM (inactive)
- Kd (TGF-beta receptor type-1): > 30 µM (inactive)
- Kd [7]: > 30 µM (inactive)
